Experiments:
[1] = tested on: Human gammaherpesvirus 4; assay: Inhibition of TPA-induced Epstein-Barr virus early antigen activation in Raji cells after 48 hrs; format: functional, organism-based; conditions: human gammaherpesvirus 4, Raji
[2] = tested on: Raji; assay: Cell viability of Raji cells at 320 nM; format: functional, Homo sapiens
[3] = Scavenging activity against NO generation in human Chang liver cells assessed as inhibition of NOR1-activation at 350 nM relative to NOR1; format: functional
[4] = tested on: Human gammaherpesvirus 4; assay: Inhibition of TPA-induced Epstein-Barr virus early antigen activation assessed as EBV-EA induction in Raji cells at 32 nM after 48 hrs relative to TPA; values are per cent of control; conditions: human gammaherpesvirus 4, Raji
[5] = tested on: Human gammaherpesvirus 4; assay: Inhibition of TPA-induced Epstein-Barr virus early antigen activation assessed as EBV-EA induction in Raji cells at 320 nM after 48 hrs relative to TPA; values are per cent of control; conditions: human gammaherpesvirus 4, Raji
[6] = tested on: Human gammaherpesvirus 4; assay: Inhibition of TPA-induced Epstein-Barr virus early antigen activation assessed as EBV-EA induction in Raji cells at 3.2 nM after 48 hrs relative to TPA; values are per cent of control; conditions: human gammaherpesvirus 4, Raji
[7] = tested on: Human gammaherpesvirus 4; assay: Inhibition of TPA-induced Epstein-Barr virus early antigen activation assessed as EBV-EA induction in Raji cells at 0.32 nM after 48 hrs relative to TPA; values are per cent of control; conditions: human gammaherpesvirus 4, Raji

| IC50 [1] [nM] | SMILES | Activity [2] [%] | Activity [3] | level, % of control at 0.032 µM [4] [%] | level, % of control at 0.32 µM [5] [%] | level, % of control at 0.0032 µM [6] [%] | level, % of control at 0.00032 µM [7] [%] |
| --- | --- | --- | --- | --- | --- | --- | --- |
| 10.2 | C=C(CC[C@@H](C)[C@H]1CC[C@@]2(C)[C@@H]3CC[C@H]4CC(=O)CC[C@@]45C[C@@]35CC[C@]12C)C(C)C | 70 | 1.5 | 33.2 | 0 | 73.8 | 95.6 |
| 8.8 | COC(CC[C@@H](C)[C@H]1CC[C@@]2(C)[C@@H]3CC[C@H]4C(C)(C)C(=O)CC[C@@]45C[C@@]35CC[C@]12C)C(C)(C)O (stereo partly specified) | 70 | 1.9 | 21 | 0 | 67.1 | 94.6 |
| 10.3 | C=C(CC[C@@H](C)[C@H]1CC[C@@]2(C)[C@@H]3CC[C@H]4[C@H](C)C(=O)CC[C@@]45C[C@@]35CC[C@]12C)C(C)C [CYCLOEUCALENONE] | 70 | 1.5 | 33.4 | 0 | 74 | 96.2 |
| 8.9 | CC(=O)[C@H]1CC[C@@]2(C)[C@@H]3CC[C@H]4C(C)(C)C(=O)CC[C@@]45C[C@@]35CC[C@]12C | 70 | 1.5 | 22.1 | 0 | 70.3 | 94.6 |
| 7.4 | C[C@H](CCC(O)C(C)(C)O)[C@H]1CC[C@@]2(C)[C@@H]3CC[C@H]4C(C)(C)C(=O)CC[C@@]45C[C@@]35CC[C@]12C (stereo partly specified) | 70 | 2 | 19.1 | 0 | 66.8 | 88.4 |
| 9.5 | CC(C)=CCC[C@@H](C)[C@H]1CC[C@@]2(C)[C@@H]3CC[C@H]4[C@H](C)[C@@H](O)CC[C@@]45C[C@@]35CC[C@]12C | 70 | 1.8 | 30.2 | 0 | 71.4 | 94.6 |
| 8.6 | C=C(C)C(O)CC[C@@H](C)[C@H]1CC[C@@]2(C)[C@@H]3CC[C@H]4C(C)(C)C(=O)CC[C@@]45C[C@@]35CC[C@]12C (stereo partly specified) | 70 | 2 | 21.1 | 0 | 69.7 | 91.2 |
| 8.9 | C=C(C)[C@@H](C)CC[C@@H](C)[C@H]1CC[C@@]2(C)[C@@H]3CC[C@H]4C(C)(C)[C@@H](O)CC[C@@]45C[C@@]35CC[C@]12C [CYCLOLAUDENOL (24S)] | 70 | 1.8 | 30.6 | 0 | 70 | 93.6 |
| 9.5 | COC(C)(C)[C@@H](O)CC[C@@H](C)[C@H]1CC[C@@]2(C)[C@@H]3CC[C@H]4C(C)(C)[C@@H](O)CC[C@@]45C[C@@]35CC[C@]12C | 70 | 1.8 | 30.7 | 0 | 74.5 | 95.9 |
| 9.3 | C=C(C)C(=O)CC[C@@H](C)[C@H]1CC[C@@]2(C)[C@@H]3CC[C@H]4C(C)(C)[C@@H](O)CC[C@@]45C[C@@]35CC[C@]12C | 70 | 1.4 | 25.4 | 1.5 | 73.1 | 97.8 |
| 9.9 | C=C(C)[C@@H](C)CC[C@@H](C)[C@H]1CC[C@@]2(C)[C@@H]3CC[C@H]4[C@@H](C)C(=O)CC[C@@]45C[C@@]35CC[C@]12C | 70 | 1.8 | 32.4 | 0 | 72.7 | 94.6 |

The remaining lines, values behind:

| SMILES | IC50 [1] [nM] | Activity [2] [%] | Activity [3] | level, % of control at 0.032 µM [4] [%] | level, % of control at 0.32 µM [5] [%] | level, % of control at 0.0032 µM [6] [%] | level, % of control at 0.00032 µM [7] [%] |
| --- | --- | --- | --- | --- | --- | --- | --- |
| CC(=O)O[C@H]1CC[C@]23C[C@]24CC[C@]2(C)[C@@H]([C@H](C)CCC=C(C)C)CC[C@@]2(C)[C@@H]4CC[C@H]3C1(C)C [CYCLOARTENOL ACETATE] | 10.1 | 70 | 1.8 | 32.3 | 0 | 73.1 | 96.9 |
| CC(C)CCC[C@@H](C)[C@H]1CC[C@@]2(C)[C@@H]3CC[C@H]4[C@H](C)[C@@H](O)CC[C@@]45C[C@@]35CC[C@]12C | 9.9 | 70 | 1.5 | 31.5 | 0 | 72.6 | 95.6 |
| C=C(CC[C@@H](C)[C@H]1CC[C@@]2(C)[C@@H]3CC[C@H]4[C@@H](C)[C@@H](O)CC[C@@]45C[C@@]35CC[C@]12C)C(C)C | 9.5 | 70 | 1.5 | 29.9 | 0 | 72 | 95.1 |
| C=C(CC[C@@H](C)[C@H]1CC[C@@]2(C)[C@@H]3CC[C@H]4C(C)(C)[C@@H](O)CC[C@@]45C[C@@]35CC[C@]12C)C(C)C | 8.8 | 70 | 1.7 | 23.2 | 0 | 68.1 | 91.4 |
| COc1cc(/C=C/C(=O)O[C@H]2CC[C@]34C[C@]35CC[C@]3(C)[C@@H]([C@H](C)CCC=C(C)C)CC[C@@]3(C)[C@@H]5CC[C@H]4C2(C)C)ccc1O [GAMMA ORYZANOL] | 15.9 | 70 | 1.5 | 56 | 19.7 | 84.7 | 100 |
| CC(C)=CCC[C@@H](C)[C@H]1CC[C@@]2(C)[C@@H]3CC[C@H]4C(C)(C)[C@@H](O)CC[C@@]45C[C@@]35CC[C@]12C [CYCLOARTENOL] | 8.8 | 70 | 1.6 | 25.8 | 0 | 69.9 | 93.5 |
| CC(C)CCC[C@@H](C)[C@H]1CC[C@@]2(C)[C@@H]3CC[C@H]4C[C@@H](O)CC[C@@]45C[C@@]35CC[C@]12C [POLLINASTANOL] | 9.9 | 70 | 1.5 | 31.7 | 0 | 73.1 | 95.9 |
| CC(C)C(=O)CC[C@@H](C)[C@H]1CC[C@@]2(C)[C@@H]3CC[C@H]4C(C)(C)[C@@H](O)CC[C@@]45C[C@@]35CC[C@]12C | 8.1 | 70 | 2 | 19.8 | 0 | 62.7 | 90.5 |
| CC(C)CCC[C@@H](C)[C@H]1CC[C@@]2(C)[C@@H]3CC[C@H]4C(C)(C)[C@@H](O)CC[C@@]45C[C@@]35CC[C@]12C [CYCLOARTANOL] | 9.4 | 70 | 1.8 | 30.2 | 0 | 70.2 | 95 |
| CC(C)=C(C)CC[C@@H](C)[C@H]1CC[C@@]2(C)[C@@H]3CC[C@H]4C(C)(C)[C@@H](O)CC[C@@]45C[C@@]35CC[C@]12C [CYCLOBRANOL] | 9.4 | 70 | 1.9 | 30.5 | 0 | 71.3 | 94.5 |
| C/C(=C\C[C@@H](C)[C@H]1CC[C@@]2(C)[C@@H]3CC[C@H]4C(C)(C)[C@@H](O)CC[C@@]45C[C@@]35CC[C@]12C)C(C)C [(23E)-CYCLOSADOL] | 9.9 | 70 | 2 | 31.4 | 0 | 72.8 | 95.2 |
| C=C(C)[C@H](O)CC[C@@H](C)[C@H]1CC[C@@]2(C)[C@@H]3CC[C@H]4C(C)(C)[C@@H](O)CC[C@@]45C[C@@]35CC[C@]12C | 6.4 | 70 | 2 | 15 | 0 | 57.8 | 84.4 |

Source: ChEMBL document CHEMBL1143693, “Cancer chemopreventive effects of cycloartane-type and related triterpenoids in in vitro and in vivo models” (J Nat Prod, 2007)
